In assay [1] the target is T1, 3-dehydroquinate synthase (Escherichia coli K-12) (UniProt P07639).
T1 sequence (whole entry): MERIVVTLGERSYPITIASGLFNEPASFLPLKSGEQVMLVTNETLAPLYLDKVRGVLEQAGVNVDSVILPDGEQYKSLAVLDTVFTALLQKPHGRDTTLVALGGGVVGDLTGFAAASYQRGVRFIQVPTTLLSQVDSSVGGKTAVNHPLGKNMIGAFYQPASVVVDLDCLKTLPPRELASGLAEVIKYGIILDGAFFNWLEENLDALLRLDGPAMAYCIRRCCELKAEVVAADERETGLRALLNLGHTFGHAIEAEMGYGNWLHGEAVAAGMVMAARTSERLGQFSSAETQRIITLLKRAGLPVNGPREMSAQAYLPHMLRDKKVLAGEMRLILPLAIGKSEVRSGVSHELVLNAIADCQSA
Kind of assay: Type of inhibition of 3-dehydroquinate synthase was determined; R - Slowly reversible.

For assay [2], the target named is T1, 3-dehydroquinate synthase (Escherichia coli K-12). Kind of assay: […] rate constant against 3-dehydroquinate synthase.
Assay [3] concerns the target T2, 3-dehydroquinate synthase (Escherichia coli K-12, UniProt P07639).
T2 sequence (P07639 whole entry): T1 sequence (whole entry)
Kind of assay: Inhibition constant against 3-dehydroquinate synthase.

Assay [4] has as its target T1, 3-dehydroquinate synthase (Escherichia coli K-12). Kind of assay: Rate constant against 3-dehydroquinate synthase.

Structures are written as SMILES. pKi: −log10 of the molar value.

Consider 3 compounds from ChEMBL document CHEMBL1126355, “The basis for slowly reversible inhibition of dehydroquinate synthase: a case of mistaken identity?” (Bioorg Med Chem Lett, 1992).

As for `O=C(O)C1(O)CCC(O)C(CP(=O)(O)O)C1` (centres undefined), in assay [1], the inhibition result is on record as “R”.
The pKi is the negative decadic logarithm of the Ki, by convention in mol/L. Low values mean a high Ki, high ones a low Ki. Regarding `O=C(O)C1(O)CC(O)C(O)C(CP(=O)(O)O)C1` (centres undefined), the k off in assay [2] came out at 0.00075 s⁻¹. The compound further had a pKi in assay [3] of 8.27. The inhibition entry in assay [1] is “R”. In assay [4], the k on amounted to 140000 M⁻¹ s⁻¹.
`O=C(O)C1(O)CC(O)CC(CP(=O)(O)O)C1` (centres undefined) yielded a k off in assay [2] of 0.00054 s⁻¹. The pKi in assay [3] is 6.27. For the same compound, the inhibition entry in assay [1] is listed as “R”. In assay [4], this compound gave a k on of 1000 M⁻¹ s⁻¹.
